Data taken from ChEMBL document CHEMBL4665661, “Design, synthesis, and biological activity evaluation of (-)-6-O-desmethylantofine analogues as potent anti-cancer agents” (Bioorg Med Chem, 2019).
pIC50: −log10 of the molar value. Activity calls are given as the source filed them. The calls are words filed in the database; no cut-off is given here.

Columns and labels:
[1] = system: SMMC-7721; assay: Cell cycle arrest in human SMMC-7721 cells assessed as inhibition of DNA synthesis by measuring increase in cell population at S phase at 20 to 200 nM after 24 hrs by RNase A/propidium iodide staining-based flow cytometric analysis; format: functional
[2] = system: Zip177; assay: Cell cycle arrest in human Zip177 cells assessed as inhibition of DNA synthesis by measuring increase in cell population at S phase at 20 to 200 nM after 24 hrs by RNase A/propidium iodide staining-based flow cytometric analysis; format: functional
[3] = system: Bel-7402; assay: Cell cycle arrest in human Bel-7402 cells assessed as increase in cell population at S phase at 1.2 nM by RNase A/propidium iodide staining-based flow cytometric analysis (reference value: 26.3%); format: functional
[4] = system: Bel-7402; assay: Cell cycle arrest in human Bel-7402 cells assessed as increase in cell population at S phase at 33 nM by RNase A/propidium iodide staining-based flow cytometric analysis (reference value: 26.3%); format: functional
[5] = system: MKN-45; assay: Antiproliferative activity against human MKN-45 cells incubated for 72 hrs by MTT assay; format: functional, cell-based
[6] = system: A549; assay: Antiproliferative activity against human A549 cells incubated for 72 hrs by MTT assay; format: functional, cell-based
[7] = system: Bel-7402; assay: Induction of apoptosis in human Bel-7402 cells assessed as viable cells at 1 uM after 72 hrs by FITC-annexin V/propidium iodide-double staining based flow cytometry (reference value: 93.6%); format: functional; settings: read-out: Activity
[8] = system: K562; assay: Antiproliferative activity against human K562 cells; format: functional, cell-based
[9] = system: Bel-7402; assay: Induction of apoptosis in human Bel-7402 cells assessed as early apoptotic cells at 1 uM after 72 hrs by FITC-annexin V/propidium iodide-double staining based flow cytometry (reference value: 0.65%); format: functional
[10] = Antiproliferative activity against drug-resistant human KB/VCR cells; format: functional, cell-based
[11] = system: Bel-7402; assay: Cell cycle arrest in human Bel-7402 cells assessed as increase in cell population at S phase at 3.7 nM by RNase A/propidium iodide staining-based flow cytometric analysis (reference value: 26.3%); format: functional
[12] = system: Bel-7402; assay: Induction of apoptosis in human Bel-7402 cells assessed as late apoptotic cells at 1 uM after 72 hrs by FITC-annexin V/propidium iodide-double staining based flow cytometry (reference value: 3.06%); format: functional
[13] = system: SU-DHL-6; assay: Antiproliferative activity against human SU-DHL-6 cells incubated for 72 hrs by MTT assay; format: functional, cell-based
[14] = system: MCF7; assay: Antiproliferative activity against human MCF7 cells incubated for 72 hrs by MTT assay; format: functional, cell-based
[15] = system: SGC-7901; assay: Antiproliferative activity against human SGC-7901 cells incubated for 72 hrs by MTT assay; format: functional, cell-based
[16] = system: K562; assay: Antiproliferative activity against human K562 cells incubated for 72 hrs by MTT assay; format: functional, cell-based
[17] = system: Bel-7402; assay: Inhibition of DNA synthesis in human Bel-7402 cells assessed as Brdu positive cells at 1 uM measured after 1 hrs by propidium iodide staining-based BrdU incorporation assay (reference value: 29.8%); format: functional; parameters: scale not given: the % may be the effect or the level left; settings: time 30 min, 0.5 h
[18] = system: HL-60; assay: Antiproliferative activity against human HL-60 cells after 72 hrs by MTT assay; format: functional, cell-based; settings: HL-60, 72 h
[19] = system: Bel-7402; assay: Induction of apoptosis in human Bel-7402 cells assessed as late apoptotic cells at 0.1 uM after 72 hrs by FITC-annexin V/propidium iodide-double staining based flow cytometry (reference value: 3.06%); format: functional
[20] = system: Bel-7402; assay: Antiproliferative activity against human Bel-7402 cells at 11 to 33 nM by IncuCyte zoom live cell analysis; format: functional, cell-based; settings: dose nM 11-33
[21] = system: KB; assay: Cell cycle arrest in drug- resistant human KB/VCR cells assessed as inhibition of DNA synthesis by measuring increase in cell population at S phase at 1 to 10 nM upto 12 hrs by RNase A/propidium iodide staining-based flow cytometric analysis; format: functional; settings: dose nM 1-10, time hrs <=12
[22] = system: KATO III; assay: Antiproliferative activity against human […] cells incubated for 72 hrs by MTT assay; format: functional, cell-based
[23] = system: T47D; assay: Antiproliferative activity against human T47D cells incubated for 72 hrs by MTT assay; format: functional, cell-based
[24] = system: Bel-7402; assay: Induction of apoptosis in human Bel-7402 cells assessed as late apoptotic cells at 0.01 uM after 72 hrs by FITC-annexin V/propidium iodide-double staining based flow cytometry (reference value: 3.06%); format: functional

COc1cc2c3c(c4ccc(OCC#N)cc4c2cc1OC)CN1CCC[C@@H]1C3
Activity [1]: Active
Activity [2]: Active
Activity [3]: 24.5%
Activity [4]: 34%
inhibition [5]: Active
inhibition [6]: Active
viability at 1 µM [7]: 79.2%
pIC50 [8]: 7.87
Activity [9]: 1.6%
pIC50 [10]: 6.22
Activity [11]: 27%
Activity [12]: 15.5%
inhibition [13]: Active
inhibition [14]: Active
inhibition [15]: Active
inhibition [16]: Active
Activity [17]: 8.15%
pIC50 [18]: 7.36
Activity [19]: 8.29%
inhibition [20]: Active
Activity [21]: Active
inhibition [22]: Active
inhibition [23]: Active
Activity [24]: 1.55%
